Test results taken from US20110009628A1, “Compounds and Compositions for Modulating Lipid Levels and Methods of Preparing Same” (priority 2009, published 2011).

How the values were obtained:
Format in all cases: cell-based, human
[1] = tested on: LDLR mRNA expression in HepG2 cells; assay: LDLR mRNA expression in HepG2 cells, quantitative real-time RT-PCR (Example 12); conditions: 24 hours; for fold induction at 10 µM / fold induction at 40 µM: Homo sapiens; for fold induction at 10 µM: read-out: Activity on LDLR mRNA at 10 uM (fold of control); for fold induction at 40 µM: read-out: Activity on LDLR mRNA at 40 uM (fold of control)
Description: (§1) The effects of compounds on the mRNA expressions of LDLR and PCSK9 were examined using quantitative real-time RT-PCR assays. HepG2 cells were treated with various compounds at 10 and 40 uM concentrations for 24 hours. Total RNA was isolated and […] was used to generate cDNA in a reaction containing random primers and M-MLV at 37° C. for 1 h in a volume of 25 μL. Real-time PCR was performed on the cDNA using MCEP REALPLEX 2 SYSTEM (Eppendorf) and Universal MasterMix (Applied Biosystems). Human LDLR, PCSK9, and GAPDH Pre-Developed TaqMan Assay Reagents (Applied Biosystems) were used to assess the levels of mRNA expressions in HepG2. The levels of LDLR and PCSK9 mRNA were normalized to that of GAPDH. Each RNA samples was assayed in duplicate. The fold activity was calculated by dividing mRNA abundance in compound treated cells with that of control.

[2] = tested on: LDL ligand uptake activity in HepG2 cells; assay: DiI-LDL uptake in HepG2 cells (Example 12)
Description: The combined beneficial effects of these novel compounds on elevation of LDLR mRNA levels likely through the mechanism of mRNA stabilization and their inhibitory activity towards PCSK9, the secreted protease that degrades LDLR protein, result in strong increases in LDL ligand uptake activity through increased receptor surface abundance. […] Briefly, HepG2 cells (2×10^5 cells/well) in 24-well culture plates were treated with various compounds at 10 and 40 uM concentrations for 20 hours. The fluorescent 1.1′-dioctadecyl-3,3,3′,3′-tetramethylindocarbocyanin perchlorate (DiI-LDL) (Biomedical Technologies, Stoughton, Mass.) at a concentration of 2 μg/ml was added to cells at the end of treatment. After 4 hours, the medium was removed; cells were washed with cold PBS, and were examined immediately under a fluorescent microscope (Nikon) at 200× amplification. The fluorescent intensity in compound-treated cells was compared to that in untreated control cells. […]

[3] = tested on: PCSK9 mRNA expression in HepG2 cells; assay: PCSK9 mRNA expression in HepG2 cells, quantitative real-time RT-PCR (Example 12); conditions: 24 hours
Description: as §1

[4] = 40 uM, 20 hours (second symbol of cell)
[5] = 10 uM, 20 hours (first symbol of cell)

Compound	Activity on LDLR mRNA at 10 uM (fold of control) ([1]; 10 uM)	Activity on LDLR mRNA at 40 uM (fold of control) ([1]; 40 uM)	Activity in LDL uptake (relative to control) [2, 4]	fold induction at 10 µM ([1]; 10 uM)	fold induction at 40 µM ([1]; 40 uM)	Activity in LDL uptake (relative to control) [2, 5]	PCSK9 mRNA level at 10 uM (fold of control) [3]	Activity on PCSK9 mRNA reduction at 40 uM (fold of control) [3]	PCSK9 mRNA expression, in words ([3]; 10 and 40 uM)
COc1ccc2c(c1OS(=O)(=O)c1ccccc1)CN1CCc3cc4c(cc3C1C2)OCCO4 (stereo not shown) [Compound 115, 11-Methoxy-6,7,8,9,14,14a-hexahydro-2H,3H-1,4-dioxano[5,6-g]isoquinolino[3,2-a]isoquinolin-10-yl benzenesulfonate]	0.51 ± 0.11 fold of control	2.65 ± 0.06 fold of control	+++						
COc1ccc2c(c1)CCN1Cc3c(ccc(OC)c3OS(=O)(=O)c3ccccc3)CC21 (stereo not shown) [Compound 116, 3,10-Dimethoxy-5,6,7,8,13,13a-hexahydroisoquinolino[2,1-b]isoquinolin-9-yl benzenesulfonate]			+++/+++	1.41 ± 0.04	7.19 ± 1.29	+++/+++			
COc1ccc2c(c1OS(=O)(=O)c1ccccc1)CN1CCc3cc(C)ccc3C1C2 (stereo not shown) [Compound 121, 10-Methoxy-3-methyl-5,6,7,8,13,13a-hexahydroisoquinolino[2,1-b]isoquinolin-9-yl benzenesulfonate]			+	3.56 ± 0.03	3.43 ± 0.81	+++			
COc1cc2c(cc1OC)C1Cc3ccc(OC)c(OS(=O)(=O)c4cccc(F)c4)c3CN1CC2 (stereo not shown) [Compound 127, 2,3,10-Trimethoxy-5,6,7,8,13,13a-hexahydroisoquinolino[2,1-b]isoquinolin-9-yl 3-fluorobenzenesulfonate]			+++/+++	1.8 ± 0.13	2.38 ± 0.38	+++/+++	0.197 ± 0.014 fold of control	0.192 ± 0.016 fold of control	strongly inhibits PCSK9 expression
COc1ccc2c(c1)CCN1Cc3c(ccc(OC)c3OS(=O)(=O)c3cccc(F)c3)CC21 (stereo not shown) [Compound 128, 3,10-Dimethoxy-5,6,7,8,13,13a-hexahydroisoquinolino[2,1-b]isoquinolin-9-yl 3-fluorobenzenesulfonate]			+++/+++	7.52 ± 0.26	13.4 ± 0.46	+++/+++	0.96 ± 0.00 fold of control	0.86 ± 0.029 fold of control	
COc1ccc2c(c1OS(=O)(=O)c1cccc(F)c1)CN1CCc3cc4c(cc3C1C2)OCCO4 (stereo not shown) [Compound 129, 11-Methoxy-6,7,8,9,14,14a-hexahydro-2H,3H-1,4-dioxano[5,6-g]isoquinolino[3,2-a]isoquinolin-10-yl 3-fluorobenzenesulfonate]			++	2.49 ± 0.18	1.99 ± 0.13	+	1.57 ± 0.07 fold of control	1.68 ± 0.41 fold of control	
COc1ccc2c(c1OS(=O)(=O)c1cccc(F)c1)CN1CCc3cc(C)ccc3C1C2 (stereo not shown) [Compound 130, 10-Methoxy-3-methyl-5,6,7,8,13,13a-hexahydroisoquinolino[2,1-b]isoquinolin-9-yl 3-fluorobenzenesulfonate]			+	4.29 ± 0.65	9 ± 1.49	++	2.11 ± 0.11 fold of control	0.84 ± 0.12 fold of control	
COC(=O)c1cc2c(cc1OC)CCN1Cc3c(ccc(OC)c3OS(=O)(=O)c3ccccc3)CC21 (stereo not shown) [Compound 131, Methyl 3,10-dimethoxy-9-(phenylsulfonyloxy)-5,6,7,8,13,13a-hexahydroisoquinolino[3,2-a]isoquinoline-2-carboxylate]			+/+	0.67 ± 0.05	2.25 ± 0.13	+/+	0.87 ± 0.04 fold of control	0.72 ± 0.10 fold of control	
COc1cc2c(cc1CO)C1Cc3ccc(OC)c(OS(=O)(=O)c4ccccc4)c3CN1CC2 (stereo not shown) [Compound 132, 2-(Hydroxymethyl)-3,10-dimethoxy-5,6,7,8,13,13a-hexahydro isoquinolino[2,1-b]isoquinolin-9-yl benzenesulfonate]			+	2.33 ± 0.04	6.62 ± 0.9	++	1.85 ± 0.12 fold of control	0.73 ± 0.15 fold of control	
CCOc1ccc2c(c1)CCN1Cc3c(ccc(OC)c3OS(=O)(=O)c3ccccc3)CC21 (stereo not shown) [Compound 133, 3-Ethoxy-10-methoxy-5,6,7,8,13,13a-hexahydroisoquinolino[2,1-b]isoquinolin-9-yl benzenesulfonate]			+	4.92	6.61 ± 0.16	++	1.04 ± 0.08 fold of control	0.49 ± 0.01 fold of control	
COc1ccc2c(c1OS(=O)(=O)c1ccccc1)CN1CCc3ccccc3C1C2 (stereo not shown) [Compound 134, 10-Methoxy-5,6,7,8,13,13a-hexahydroisoquinolino[2,1-b]isoquinolin-9-yl benzenesulfonate]			+	1.41 ± 0.07	6.23 ± 0.64		1.25 ± 0.03 fold of control	0.86 ± 0.02 fold of control	
COc1cc2c(cc1C(=O)O)C1Cc3ccc(OC)c(OS(=O)(=O)c4ccccc4)c3CN1CC2 (stereo not shown) [Compound 135, 3,10-Dimethoxy-9-(phenylsulfonyloxy)-5,6,7,8,13,13a-hexahydro isoquinolino[3,2-a]isoquinoline-2-carboxylic acid]			+	1.72 ± 0.13	1.86		0.97 ± 0.04 fold of control	1.10 ± 0.14 fold of control	
COc1cc2c(cc1C(=O)N(C)C)C1Cc3ccc(OC)c(OS(=O)(=O)c4ccccc4)c3CN1CC2 (stereo not shown) [Compound 136, 2-(N,N-dimethylcarbamoyl)-3,10-dimethoxy-5,6,7,8,13,13a-hexahydroisoquinolino[2,1-b]isoquinolin-9-yl benzenesulfonate]			++	0.91 ± 0.05	1.92 ± 0.32	+	0.48 ± 0.03 fold of control	0.62 ± 0.02 fold of control	
COc1cc2c(cc1OCC(=O)O)C1Cc3ccc(OC)c(OS(=O)(=O)c4ccccc4)c3CN1CC2 (stereo not shown) [Compound 144, 2-[3,10-dimethoxy-9-(phenylsulfonyloxy)-5,6,7,8,13,13a-hexahydroisoquinolino[3,2-a]isoquinolin-2-yloxy]acetic acid]				1.02 ± 0.09	2.69 ± 0.31		0.99 ± 0.09 fold of control	1.84 ± 0.15 fold of control	
COc1ccc2c(c1)CCN1Cc3c(OS(=O)(=O)c4cccc(F)c4)ccc(Br)c3CC21 (stereo not shown) [Compound 149, 12-bromo-3-methoxy-5,6,7,8,13,13a-hexahydroisoquinolino[2,1-b]isoquinolin-9-yl 3-fluorobenzenesulfonate]			+/+			+/+			
COc1ccc2c(c1)CCN1Cc3c(cccc3OS(=O)(=O)c3cccc(F)c3)CC21 (stereo not shown) [Compound 150, 3-methoxy-5,6,7,8,13,13a-hexahydroisoquinolino[2,1-b]isoquinolin-9-yl 3-fluorobenzenesulfonate]			++			+			
COc1ccc2c(c1)CCN1Cc3c(O)cccc3CC21 (stereo not shown) [Compound 151, 3-methoxy-5,6,7,8,13,13a-hexahydroisoquinolino[2,1-b]isoquinolin-9-ol]			+						
